Measured values from patent US9932637B2, “Genetic polymorphisms associated with cardiovascular disorders and drug response, methods of detection and uses thereof” (CELERA CORPORATION, priority 2003, dated 2018).

Test system: patients with prior myocardial infarction (CARE study)
Test: CARE: association of SNPs with pravastatin treatment in cardiovascular events prevention (logistic regression, odds ratio pravastatin vs placebo by genotype; Table 8)
Assay type: in vivo, human
Conditions: for Fatal/Non-fatal Cerebrovascular Disease, Prava vs. Placebo Odds Ratio (95% CI): ABCA1 hCV2741051, All Patients; for 1st Stroke Occurred During CARE, n/total (%) / Any Report of Stroke During CARE, n/total (%) / Fatal/Non-fatal Cerebrovascular Disease, n/total (%) / Prava vs. Placebo Odds Ratio, 0 Rare Alleles / Prava vs. Placebo Odds Ratio, 1 Rare Alleles / Prava vs. Placebo Odds Ratio, 2 Rare Alleles / Odds ratio pravastatin vs placebo / Fatal CHD/Definite Non-fatal MI, n/total (%) / Hosp. for Unstable Angina, n/total (%) / Total Coronary Heart Disease Events, n/total (%): All Patients; for 1st Stroke Occurred During CARE, n/total (%) / Any Report of Stroke During CARE, n/total (%) / Fatal/Non-fatal Cerebrovascular Disease, n/total (%) / Fatal CHD/Definite Non-fatal MI, n/total (%) / Hosp. for Unstable Angina, n/total (%) / Total Coronary Heart Disease Events, n/total (%): Prava; for Catheterization, n/total (%): ABCC8 hCV600632, All Patients; for Catheterization, n/total (%) / Nonfatal MI (Probable/Definite), n/total (%) / Nonfatal MI (def & prob), n/total (%): Prava arm
Excerpt: In order to identify genetic markers associated with acute coronary events (e.g. MI, stroke, unstable angina, congestive heart failure, etc.) or response to statin treatment for the prevention of coronary events, samples from the Cholesterol and Recurrent Events (CARE) study (a randomized multicentral double-blinded trial on secondary prevention of acute coronary events with pravastatin) (Sacks et al., 1991, Am. J. Cardiol. 68: 1436-1446) were genotyped. A well-documented myocardial infarction (MI) was one of the enrollment criteria for entry into the CARE study. Patients were enrolled in the CARE trial from 80 participating study centers. […] Patients were randomized to receive either 40 mg of pravastatin once daily or a matching placebo. The primary endpoint of the trial was death from coronary heart disease and the median duration of follow-up was 5.0 years (range, 4.0 to 6.2 years). […] Secondary endpoints of other related cardiovascular or metabolic disease events, and changes in clinical variables were also recorded in pravastatin-treated and placebo groups. All individuals included in the study had signed a written informed consent form and the study protocol was approved by the respective Institutional Review Boards (IRBs).
For genotyping SNPs in CARE patient samples, DNA was extracted from blood samples using conventional DNA extraction methods such as the QIA-amp kit from Qiagen. Genotypes were obtained on an ABI PRISM® 7900HT Sequence Detection PCR system (Applied Biosystems, Foster City, Calif.) by kinetic allele-specific PCR, similar to the method described by Germer et al. (Germer S., Holland M. J., Higuchi R. 2000, Genome Res. 10: 258-266).
Statistical analysis for association of SNPs with pravastatin treatment in cardiovascular events prevention (Table 8) was carried out using an overall logistic regression model that included an intercept, a parameter for the effect of a genotype containing two rare alleles versus a genotype containing no rare alleles, a parameter for the effect of a genotype containing one rare allele versus a genotype containing no rare alleles, a parameter for the effect of use of pravastatin versus the use of placebo, and parameters for the interaction effects between SNP genotypes and pravastatin use. The test of the overall model is a chi-square test with two degrees of freedom for analyses containing all three genotypes, and one degree of freedom for analyses containing two genotypes.
Effect sizes were estimated through odds ratios (pravastatin group versus placebo) for carriers of each genotype (groups of 0, 1, and 2 minor allele carriers). The effect was considered to be significant if p-value for testing whether any of the interactions between SNP genotypes and pravastatin use were <0.05. […] Odds ratios less than one indicate that the specific SNP allele has a protective effect and odds ratios greater than one indicate that the specific SNP allele has an adverse effect.

[1] = ABCA1 hCV2741051, 1 Rare Allele, n/total 5/651
[2] = ABCA1 hCV2741051, 1st Stroke Occurred During CARE
[3] = ABCA1 hCV2741051, 2 Rare Alleles, n/total 2/127
[4] = ABCA1 hCV2741051, Any Report of Stroke During CARE
[5] = ADAMTS13 hCV11571465, All Patients, 0 Rare Alleles
[6] = ADAMTS13 hCV11571465, All Patients, 1 Rare Allele
[7] = ADAMTS13 hCV11571465, All Patients, 2 Rare Alleles
[8] = AGTR1 hCV3187716, Fatal CHD/Definite Non-fatal MI
[9] = AGTR1 hCV3187716, Hosp. for Unstable Angina
[10] = AGTR1 hCV3187716, Total Coronary Heart Disease Events

CC[C@H](C)C(=O)O[C@H]1C[C@H](O)C=C2C=C[C@H](C)[C@H](CC[C@@H](O)C[C@@H](O)CC(=O)O)[C@H]21 [pravastatin]
Fatal/Non-fatal Cerebrovascular Disease, Prava vs. Placebo Odds Ratio (95% CI) (0 Rare Alleles): 0.98 | Fatal/Non-fatal Cerebrovascular Disease, Prava vs. Placebo Odds Ratio (95% CI) (1 Rare Alleles): 0.43 | Fatal/Non-fatal Cerebrovascular Disease, Prava vs. Placebo Odds Ratio (95% CI) (2 Rare Alleles): 0.26 | 1st Stroke Occurred During CARE, n/total (%) (ABCA1 hCV2741051, 0 Rare Alleles, n/total 26/730): (3.6%) | Any Report of Stroke During CARE, n/total (%) (ABCA1 hCV2741051, 0 Rare Alleles, n/total 27/730): (3.7%) | Fatal/Non-fatal Cerebrovascular Disease, n/total (%) (ABCA1 hCV2741051, 0 Rare Alleles, n/total 51/730): (7.0%) | 1st Stroke Occurred During CARE, n/total (%) [1]: (0.8%) | Any Report of Stroke During CARE, n/total (%) [1]: (0.8%) | Fatal/Non-fatal Cerebrovascular Disease, n/total (%) (ABCA1 hCV2741051, 1 Rare Allele, n/total 18/651): (2.8%) | Prava vs. Placebo Odds Ratio, 0 Rare Alleles [2]: 0.98 | Prava vs. Placebo Odds Ratio, 1 Rare Alleles [2]: 0.26 | Prava vs. Placebo Odds Ratio, 2 Rare Alleles [2]: 0.23 | 1st Stroke Occurred During CARE, n/total (%) [3]: (1.6%) | Any Report of Stroke During CARE, n/total (%) [3]: (1.6%) | Fatal/Non-fatal Cerebrovascular Disease, n/total (%) (ABCA1 hCV2741051, 2 Rare Alleles, n/total 3/127): (2.4%) | Prava vs. Placebo Odds Ratio, 0 Rare Alleles [4]: 0.92 | Prava vs. Placebo Odds Ratio, 1 Rare Alleles [4]: 0.21 | Prava vs. Placebo Odds Ratio, 2 Rare Alleles [4]: 0.23 | Catheterization, n/total (%) (0 Rare Alleles): (12.0%) | Catheterization, n/total (%) (1 Rare Allele): (8.8%) | Catheterization, n/total (%) (2 Rare Alleles): (10.2%) | Odds ratio pravastatin vs placebo (ABCC8 hCV600632, Catheterization, 0 rare alleles): 1.21 | Odds ratio pravastatin vs placebo (ABCC8 hCV600632, Catheterization, 1 rare allele): 0.55 | Odds ratio pravastatin vs placebo (ABCC8 hCV600632, Catheterization, 2 rare alleles): 0.81 | Nonfatal MI (Probable/Definite), n/total (%) [5]: (9.1%) | Nonfatal MI (def & prob), n/total (%) [5]: (9.1%) | Nonfatal MI (Probable/Definite), n/total (%) [6]: (10.3%) | Nonfatal MI (def & prob), n/total (%) [6]: (9.6%) | Nonfatal MI (Probable/Definite), n/total (%) [7]: (6.6%) | Nonfatal MI (def & prob), n/total (%) [7]: (6.2%) | Odds ratio pravastatin vs placebo (ADAMTS13 hCV11571465, Nonfatal MI (Probable/Definite), 0 rare alleles): 0.62 | Odds ratio pravastatin vs placebo (ADAMTS13 hCV11571465, Nonfatal MI (Probable/Definite), 1 rare allele): 0.88 | Odds ratio pravastatin vs placebo (ADAMTS13 hCV11571465, Nonfatal MI (Probable/Definite), 2 rare alleles): 0.38 | Odds ratio pravastatin vs placebo (ADAMTS13 hCV11571465, Nonfatal MI (def & prob), 0 rare alleles): 0.65 | Odds ratio pravastatin vs placebo (ADAMTS13 hCV11571465, Nonfatal MI (def & prob), 1 rare allele): 0.91 | Odds ratio pravastatin vs placebo (ADAMTS13 hCV11571465, Nonfatal MI (def & prob), 2 rare alleles): 0.37 | Fatal CHD/Definite Non-fatal MI, n/total (%) (AGTR1 hCV3187716, 0 Rare Alleles, n/total 63/769): (8.2%) | Hosp. for Unstable Angina, n/total (%) (AGTR1 hCV3187716, 0 Rare Alleles, n/total 120/769): (15.6%) | Total Coronary Heart Disease Events, n/total (%) (AGTR1 hCV3187716, 0 Rare Alleles, n/total 227/769): (29.5%) | Fatal CHD/Definite Non-fatal MI, n/total (%) (AGTR1 hCV3187716, 1 Rare Allele, n/total 72/625): (11.5%) | Hosp. for Unstable Angina, n/total (%) (AGTR1 hCV3187716, 1 Rare Allele, n/total 103/625): (16.5%) | Total Coronary Heart Disease Events, n/total (%) (AGTR1 hCV3187716, 1 Rare Allele, n/total 194/625): (31.0%) | Fatal CHD/Definite Non-fatal MI, n/total (%) (AGTR1 hCV3187716, 2 Rare Alleles, n/total 5/120): (4.2%) | Hosp. for Unstable Angina, n/total (%) (AGTR1 hCV3187716, 2 Rare Alleles, n/total 8/120): (6.7%) | Total Coronary Heart Disease Events, n/total (%) (AGTR1 hCV3187716, 2 Rare Alleles, n/total 20/120): (16.7%) | Prava vs. Placebo Odds Ratio, 0 Rare Alleles [8]: 0.63 | Prava vs. Placebo Odds Ratio, 1 Rare Alleles [8]: 0.95 | Prava vs. Placebo Odds Ratio, 2 Rare Alleles [8]: 0.24 | Prava vs. Placebo Odds Ratio, 0 Rare Alleles [9]: 0.89 | Prava vs. Placebo Odds Ratio, 1 Rare Alleles [9]: 0.90 | Prava vs. Placebo Odds Ratio, 2 Rare Alleles [9]: 0.27 | Prava vs. Placebo Odds Ratio, 0 Rare Alleles [10]: 0.80 | Prava vs. Placebo Odds Ratio, 1 Rare Alleles [10]: 0.82 | Prava vs. Placebo Odds Ratio, 2 Rare Alleles [10]: 0.38 | Nonfatal MI (Probable/Definite), n/total (%) (APOE hCV905013, All Patients, 0 Rare Alleles): (8.4%) | Nonfatal MI (Probable/Definite), n/total (%) (APOE hCV905013, All Patients, 1 Rare Allele): (10.4%) | Nonfatal MI (Probable/Definite), n/total (%) (APOE hCV905013, All Patients, 2 Rare Alleles): (7.8%) | Odds ratio pravastatin vs placebo (APOE hCV905013, Nonfatal MI (Probable/Definite), 0 rare alleles): 0.51
